Laboratory results taken from US20030152577A1, “Dye-bioconjugates for simultaneous optical diagnostic and therapeutic applications” (MALLINCKRODT INC., priority 2002, published 2003).

Tests used:
Parameters in all cases: species or system male Lewis rats
[1] = test system: DSL 6/A (pancreatic) tumor; assay: Non-invasive in vivo fluorescence imaging of DSL 6/A tumor in rats; conditions: 0.5 ml of 0.42 mg/ml in saline, tail vein, images at 2 and 30 minutes post administration
Source text: (§1) A non-invasive in vivo fluorescence imaging apparatus was employed to assess the efficacy of indocyanine green (ICG) in three different rat tumor cell lines of the inventive contrast agents developed for tumor detection in animal models. A LaserMax Inc. laser diode of nominal wavelength 780 nm and nominal power of 40 mW was used. The detector was a Princeton Instruments model RTE/CCD-1317-K/2 CCD camera with a Rodenstock 10 mm F2 lens (stock #542.032.002.20) attached. An 830 nm interference lens (CVI Laser Corp., part # F10-830-4-2) was mounted in front of the CCD input lens, such that only emitted fluorescent light from the contrast agent was imaged.
(§2) Three tumor cell lines, DSL 6/A (pancreatic), Dunning R3327-H (prostate), and CA20948 (pancreatic), which are rich in somatostatin (SST-2) receptors were induced into male Lewis rats by solid implant technique in the left flank area (Achilefu et al., Invest Radiology, 2000, pp. 479-485). Palpable masses were detected nine days post implant.

[2] = test system: Dunning R3327-H (prostate) tumor; assay: Non-invasive in vivo fluorescence imaging of Dunning R3327-H tumor in rats; conditions: 0.5 ml of 0.42 mg/ml in saline, tail vein, images at 2 and 30 minutes post administration
Source text: as §1, §2

[3] = test system: CA20948 (pancreatic) tumor, rich in somatostatin (SST-2) receptors; assay: Non-invasive in vivo fluorescence imaging of CA20948 tumor bearing rat
Source text: as §1, §2
The peptide, octreotate, is known to target somatostatin (SST-2) receptors. Therefore, the cyano-octreotates conjugate, Cytate 1, was prepared as described in Example 4. The pancreatic acinar carcinoma, CA20948, was induced into male Lewis rats as described in Example 9.
Using the CCD camera apparatus, dye localization in the tumor was observed. […]

CC1(C)C(/C=C/C=C/C=C/C=C2\N(CCCCS(=O)(=O)O)c3ccc4ccccc4c3C2(C)C)=[N+](CCCCS(=O)(=O)[O-])c2ccc3ccccc3c21 [ICG, indocyanine green]
perfusion of the agent into the tumor [1]: slow perfusion of the agent into the tumor over time
perfusion of the agent into the tumor [2]: slow perfusion of the agent into the tumor over time
perfusion of the agent into the tumor ([3]; 0.5 ml of 0.42 mg/ml in saline, tail vein, images at 2 and 30 minutes post administration): only a slight and transient perfusion that was cleared after only 30 minutes post injection
non-specific localization into the tumor line ([3]; compared to the other two lines): no non-specific localization
